Consider three compounds from patent US20060178342A1, “Hyaluronan as a cytotoxic agent, drug pre-sensitizer and chemo-sensitizer in the treatment of disease” (priority 2001, published 2006).

The structures appear in SMILES notation. Counter-ions that a name gives are not always drawn.

Series [1] is described as follows: 6-week study: treatment toxicity (body mass, blood, organ mass, survival). As to conditions: 30 mg/kg 5-FU.
Series [2] in a line: 14-week study: treatment toxicity and weight. The conditions noted are these: 50 mg/kg weekly.
The nature of series [3]: In vivo toxicology, daily iv Camptosar or HyCAMP. The conditions noted are these: for immediate neurological toxicity, early or late on-set diarrhea: Camptosar or HyCAMP; for LD50: iv.
A further series relates to SW1222. The experiment in a line: Drug cytotoxicity assay, Camptosar ± 100 nM hyaluronan. It counts as cell-based. As to conditions: Homo sapiens, 48 hours continuous exposure, HyCAMP = Camptosar + 100 nM hyaluronan. From the text: (§1) Human Colon Carcinoma Cell Lines HT-29, HCT-116, SK-CO-1, SW620, SW1222 were obtained from the Peter MacCallum, Cancer Institute, Melbourne. […] Human colon carcinoma cell lines 1215 and LIM2099 were kindly donated by Dr R Whitehead, Ludwig Institute, Melbourne. […] The various concentrations of Camptosar were achieved by diluting in the appropriate amount of growth media The HCT-116, HT-29, SK-CO-1, LIM1215, LIM2099, SW620 and SW1222 cell lines were routinely grown to 80% confluency. The cells were removed from the culture flask and counted using the haematocytometer. The cells HT-29, HCT-116, SK-CO-1, SW620 and SW1222 were resuspended to 15,000 cells/ml of cell-specific media. The LIM1215 and LIM2099 were resuspended to 30,000 cells/ml of cell-specific media. The cells were plated into 48 well culture plates (1 cm^2 surface area) by adding 1 ml of cell suspension per well. The cells were allowed to attach overnight prior to exposure to the test media. The cells were continuously exposed to the following concentrations of test media: 0 μg/ml, 0.25 μg/ml, 0.5 μg/ml, 1 μg/ml, 5 μg/ml, 25 μg/ml and 50 μg/ml Camptosar±100 nM hyaluronan (Modal Mw 850,000). The cells were continuously incubated with the test media for 48 hours. On the day of analysis, the cells were washed with Hanks Balanced Salt Solution. Subsequently, the cells were removed by trypsinization with 0.25% trypsin/EDTA. An aliquot of the trypsinized cell suspension was counted by the Coulter Counter. The raw duplicate or triplicate counts per well were obtained from the Z2 coulter counter. The counts will be averaged and will be expressed as percentage of no drug control.

A further series deals with SK-CO-1. Described as above. It counts as cell-based. The conditions noted are these: Homo sapiens, 48 hours continuous exposure, HyCAMP = Camptosar + 100 nM hyaluronan.
Description: as §1

The test system of a further series is SW 620. The description is as above. It counts as cell-based. The conditions noted are these: Homo sapiens, 48 hours continuous exposure, HyCAMP = Camptosar + 100 nM hyaluronan.
Description: as §1

Another series deals with HCT-116. The series is described as above. It counts as cell-based. The conditions noted are these: Homo sapiens, 48 hours continuous exposure, HyCAMP = Camptosar + 100 nM hyaluronan.
Description: as §1

In another series the test system is HT-29. The series is described as above. It counts as cell-based. As to conditions: Homo sapiens, 48 hours continuous exposure, HyCAMP = Camptosar + 100 nM hyaluronan.
Description: as §1

For a further series, the system named is LIM 1215. The series is described as above. It counts as cell-based. As to conditions: Homo sapiens, LIM1215; 48 hours continuous exposure; HyCAMP = Camptosar + 100 nM hyaluronan.
Description: as §1

The test system of the next series is LIM 2099. The series is described as above. It counts as cell-based. As to conditions: Homo sapiens; 48 hours continuous exposure; HyCAMP = Camptosar + 100 nM hyaluronan.
Description: as §1

Series [4] relates to Human LIM1215 colon cancer xenografts. The experiment in a line: 14-week efficacy study, irinotecan ± HA in colon cancer xenografts. The conditions noted are these: 50 mg/kg weekly; listed as irinotecan, hydrochloride. It counts as in vivo, mouse. From the text: Human LIM1215 colon cancer xenografts were inoculated into the mammary fat pad of athymic […] nude mice. Mice were randomly distributed into eight treatment groups (8 mice per group).
The treatment regime comprised of injections on Day 1 of a 7-day cycle for duration of fourteen weeks. Primary tumor volume, animal body mass, energy levels and food consumption were monitored three times weekly.
Athymic CBA/WEHI nude female mice (Walter and Eliza Hall Research Institute, Melbourne, Australia), 6 to 8 weeks old, were maintained under specific pathogen-free conditions, with sterilized food and water available ad libitum. Each mouse received one injection containing 1×10^7 cells in 50-100 μl. […]
Any animals with a tumor volume expressed as a percentage of body weight outside 0.25±0.10 (mean±1 SD) were excluded from data analysis. […]
The experimental end-point for each animal occurred either when the animal had to be euthanized due to a high degree of disease progression or when the 14-week study had been completed. The animals were monitored three times weekly and the following criteria were established to determine whether an animal had reached the experimental end point: tumour mass is greater than 10% of the animals total body mass; the animal is metabolically stressed (i.e. losing weight); or the animal is immobilized.

Series [5] deals with human breast cancer cells. The series can be described thus: Breast cancer cell count assay, cell line not specified or pooled. The conditions noted are these: Homo sapiens; cell line not stated; read-out: IC50 of adriamycin. It counts as cell-based. On the procedure:
The cell suspensions were counted with an automated cell counter (ZM-2 Coulter Counter) by adding 15 mL saline+0.2 ml of cell suspension. • Cells were resuspended to a number of: […] The cell suspensions were counted with an automated cell counter (ZM-2 Coulter Counter) by adding 15 mL saline+0.2 ml of cell suspension. Results were expressed as % of no drug control which was calculated as: […]

For series [6] the following is noted: substance implied by list of adriamycin groups; cited from earlier work.

On to `O=c1[nH]cc(F)c(=O)[nH]1` [5-FU, 5-fluorouracil, reference compound], for which the “shrinkage of the uterus” value in series [1] is 22%. In addition, the “enlarged spleen, increase in mass” value in series [1] (vs saline group) was determined as 61%.
On to `CCc1c2c(nc3ccc(OC(=O)N4CCC(N5CCCCC5)CC4)cc13)-c1cc3c(c(=O)n1C2)COC(=O)[C@]3(O)CC` [Camptosar, irinotecan hydrochloride], for which the “degree of observed weight loss, irinotecan vs HyCAMP groups” value in series [2] is “comparable”. For the same compound, the “accumulative dose received without severe adverse effects” value in [3] (25 mg/kg daily iv) is recorded as 350 mg/kg. The “body weight lost compared to HyCAMP group” value in series [3] (25 mg/kg daily iv) was determined as 18%. Further, the values for the survival time in series [3] (25 mg/kg daily iv (HyCAMP: + 13.3 mg/kg HA)), in series [3] (50 mg/kg daily iv) and in series [3] (100 mg/kg daily iv) were 14 days, not above 12 days and not above 7 days, respectively. Also, the “immediate neurological toxicity, early or late on-set diarrhea” value was “did not exhibit any immediate neurological toxicity, early or late on-set diarrhea” in series [3] (25 mg/kg daily iv) and “did not exhibit any immediate neurological toxicity, early or late on-set diarrhea” in [3] (50 mg/kg daily iv). Further, the diarrhea grade in series [3] (100 mg/kg daily iv) is recorded as 2-3 Grade. In addition, the “onset of neurological effects after injection” value in series [3] (100 mg/kg iv), in series [3] (150 mg/kg iv) and in series [3] (200 mg/kg iv) was 30 seconds each time. In series [3] (100 mg/kg iv), the “time to fully recuperate from neurological effects” value is on record as 5 h. Also, the “recuperation from neurological effects” value in series [3] (150 mg/kg iv) and in [3] (200 mg/kg iv) was “did not recuperate” throughout. For the same compound, in [3] (50-100 mg/kg), the “organ mass compared to HyCAMP treatment group” value was “significant increase in the mass of the stomach, lungs, spleen and brain”. The LD50 (as a rule, the dose at which mortality reaches 50%) at 14 days in series [3] (male, F1 CBAXC57 (out-bred), mouse, in vivo, intravenous) was 475 to 550 mg/kg. For the same compound, the LD50 in series [3] (male, F1 CBAXC57 (out-bred), mouse, in vivo, 50 mg/kg) came to 475 mg/kg; in series [3] (male, F1 CBAXC57 (out-bred), mouse, in vivo, 100 mg/kg), 550 mg/kg. In [3] (single bolus iv), this compound had a lethal dose of more than 100 mg/kg. In addition, the IC50 (as a rule, the concentration at which inhibition is half-maximal) with SW1222 was determined as 32 µM; in the series on SK-CO-1, 5 µM; in the series with SW 620 it was 10 µM; in the series on HCT-116 it was 1.5 µM; in the series on HT-29 it was 16 µM; in the series with LIM 1215, 16 µM. Also, in the series with LIM 2099, the IC50 stood at 31 µM. For the same compound, the “population survival to the end of the 14-week study” value in series [4] was “approximately 57%”.
As to `COc1cccc2c1C(=O)c1c(O)c3c(c(O)c1C2=O)C[C@@](O)(C(=O)CO)C[C@@H]3O[C@H]1C[C@H](N)[C@H](O)[C@H](C)O1` [adriamycin, doxorubicin, reference compound], the IC50 in series [5] worked out at 0.09 µM. In series [6], the “Mouse LD50” value was 10 mg/kg.
